{"source": "the NIST ThermoML archive (doi:10.1021/acs.jced.6b00563)", "key": {"[1]": {"test": "refractive index (Na D-line) (dimensionless); an = ratio of the nth substance listed", "conditions": "100 kPa, Liquid, Standard Abbe refractometry, a1 = 2"}, "[2]": {"test": "an = ratio of the nth substance listed", "conditions": "100 kPa, Liquid, a1 = 2; for viscosity: Falling or rolling sphere viscometry; for speed of sound: Sing-around technique in a fixed-path interferometer; for mass density: Vibrating tube method"}, "[3]": {"conditions": "100 kPa, Liquid; for viscosity: Falling or rolling sphere viscometry; for speed of sound: Sing-around technique in a fixed-path interferometer; for mass density: Vibrating tube method"}, "[4]": {"test": "refractive index (Na D-line) (dimensionless)", "conditions": "100 kPa, Liquid, Standard Abbe refractometry"}}, "note": "Numbers after ± are expanded uncertainties."}
{"smiles": "CC(=O)CCC(=O)O", "note": "[4-oxopentanoic acid] + C[N+](C)(C)CCO.[Cl-]", "values": [{"measurement": "refractive index", "setting": "[1]; 293.15 K", "value": "1.46987 ± 0.00034"}, {"measurement": "refractive index", "setting": "[1]; 298.15 K", "value": "1.46867 ± 0.00034"}, {"measurement": "refractive index", "setting": "[1]; 303.15 K", "value": "1.4673 ± 0.00034"}, {"measurement": "refractive index", "setting": "[1]; 308.15 K", "value": "1.46595 ± 0.00034"}, {"measurement": "refractive index", "setting": "[1]; 313.15 K", "value": "1.46457 ± 0.00034"}, {"measurement": "refractive index", "setting": "[1]; 318.15 K", "value": "1.4632 ± 0.00034"}, {"measurement": "refractive index", "setting": "[1]; 323.15 K", "value": "1.4618 ± 0.00034"}, {"measurement": "refractive index", "setting": "[1]; 328.15 K", "value": "1.46041 ± 0.00034"}, {"measurement": "refractive index", "setting": "[1]; 333.15 K", "value": "1.45902 ± 0.00034"}, {"measurement": "refractive index", "setting": "[1]; 338.15 K", "value": "1.45761 ± 0.00034"}, {"measurement": "refractive index", "setting": "[1]; 343.15 K", "value": "1.45623 ± 0.00034"}, {"measurement": "viscosity", "setting": "[2]; 293.15 K", "value": "365.3 ± 24", "unit": "mPa·s"}, {"measurement": "speed of sound", "setting": "[2]; 293.15 K", "value": "1764 ± 2", "unit": "m/s"}, {"measurement": "mass density", "setting": "[2]; 293.15 K", "value": "1141.05 ± 1.2", "unit": "kg/m3"}, {"measurement": "viscosity", "setting": "[2]; 298.15 K", "value": "255.8 ± 14", "unit": "mPa·s"}, {"measurement": "speed of sound", "setting": "[2]; 298.15 K", "value": "1749 ± 2", "unit": "m/s"}, {"measurement": "mass density", "setting": "[2]; 298.15 K", "value": "1137.7 ± 1.2", "unit": "kg/m3"}, {"measurement": "viscosity", "setting": "[2]; 303.15 K", "value": "185.5 ± 8.2", "unit": "mPa·s"}, {"measurement": "speed of sound", "setting": "[2]; 303.15 K", "value": "1734 ± 2", "unit": "m/s"}, {"measurement": "mass density", "setting": "[2]; 303.15 K", "value": "1134.34 ± 1.1", "unit": "kg/m3"}, {"measurement": "viscosity", "setting": "[2]; 308.15 K", "value": "136.5 ± 4.6", "unit": "mPa·s"}, {"measurement": "speed of sound", "setting": "[2]; 308.15 K", "value": "1720 ± 2", "unit": "m/s"}, {"measurement": "mass density", "setting": "[2]; 308.15 K", "value": "1130.99 ± 1.1", "unit": "kg/m3"}, {"measurement": "viscosity", "setting": "[2]; 313.15 K", "value": "103.7 ± 2.6", "unit": "mPa·s"}, {"measurement": "speed of sound", "setting": "[2]; 313.15 K", "value": "1707 ± 2", "unit": "m/s"}, {"measurement": "mass density", "setting": "[2]; 313.15 K", "value": "1127.63 ± 1.1", "unit": "kg/m3"}, {"measurement": "viscosity", "setting": "[2]; 318.15 K", "value": "81.5 ± 1.5", "unit": "mPa·s"}, {"measurement": "speed of sound", "setting": "[2]; 318.15 K", "value": "1693 ± 2", "unit": "m/s"}, {"measurement": "mass density", "setting": "[2]; 318.15 K", "value": "1124.3 ± 1.1", "unit": "kg/m3"}, {"measurement": "viscosity", "setting": "[2]; 323.15 K", "value": "64.8 ± 0.9", "unit": "mPa·s"}, {"measurement": "speed of sound", "setting": "[2]; 323.15 K", "value": "1680 ± 2", "unit": "m/s"}, {"measurement": "mass density", "setting": "[2]; 323.15 K", "value": "1120.98 ± 1.1", "unit": "kg/m3"}, {"measurement": "viscosity", "setting": "[2]; 328.15 K", "value": "51.7 ± 0.6", "unit": "mPa·s"}, {"measurement": "speed of sound", "setting": "[2]; 328.15 K", "value": "1667 ± 2", "unit": "m/s"}, {"measurement": "mass density", "setting": "[2]; 328.15 K", "value": "1117.68 ± 1.1", "unit": "kg/m3"}, {"measurement": "viscosity", "setting": "[2]; 333.15 K", "value": "43 ± 0.6", "unit": "mPa·s"}, {"measurement": "speed of sound", "setting": "[2]; 333.15 K", "value": "1654 ± 2", "unit": "m/s"}, {"measurement": "mass density", "setting": "[2]; 333.15 K", "value": "1114.69 ± 1.1", "unit": "kg/m3"}, {"measurement": "viscosity", "setting": "[2]; 338.15 K", "value": "34.1 ± 0.4", "unit": "mPa·s"}, {"measurement": "speed of sound", "setting": "[2]; 338.15 K", "value": "1641 ± 2", "unit": "m/s"}, {"measurement": "mass density", "setting": "[2]; 338.15 K", "value": "1111.41 ± 1.1", "unit": "kg/m3"}, {"measurement": "viscosity", "setting": "[2]; 343.15 K", "value": "28.6 ± 0.4", "unit": "mPa·s"}, {"measurement": "speed of sound", "setting": "[2]; 343.15 K", "value": "1628 ± 2", "unit": "m/s"}, {"measurement": "mass density", "setting": "[2]; 343.15 K", "value": "1108.1 ± 1.1", "unit": "kg/m3"}]}
{"smiles": "CCCCO", "note": "[butan-1-ol]", "values": [{"measurement": "viscosity", "setting": "[3]; 298.15 K", "value": "2.568 ± 0.032", "unit": "mPa·s"}, {"measurement": "speed of sound", "setting": "[3]; 298.15 K", "value": "1240 ± 2", "unit": "m/s"}, {"measurement": "mass density", "setting": "[3]; 298.15 K", "value": "805.75 ± 0.81", "unit": "kg/m3"}, {"measurement": "viscosity", "setting": "[3]; 308.15 K", "value": "1.998 ± 0.025", "unit": "mPa·s"}, {"measurement": "speed of sound", "setting": "[3]; 308.15 K", "value": "1206 ± 2", "unit": "m/s"}, {"measurement": "mass density", "setting": "[3]; 308.15 K", "value": "798.06 ± 0.81", "unit": "kg/m3"}, {"measurement": "viscosity", "setting": "[3]; 318.15 K", "value": "1.578 ± 0.019", "unit": "mPa·s"}, {"measurement": "speed of sound", "setting": "[3]; 318.15 K", "value": "1173 ± 2", "unit": "m/s"}, {"measurement": "mass density", "setting": "[3]; 318.15 K", "value": "790.22 ± 0.8", "unit": "kg/m3"}, {"measurement": "refractive index", "setting": "[4]; 298.15 K", "value": "1.39697 ± 0.00031"}, {"measurement": "refractive index", "setting": "[4]; 308.15 K", "value": "1.39281 ± 0.00031"}, {"measurement": "refractive index", "setting": "[4]; 318.15 K", "value": "1.38857 ± 0.00031"}]}
{"smiles": "CCO", "note": "[ethanol]", "values": [{"measurement": "viscosity", "setting": "[3]; 298.15 K", "value": "1.083 ± 0.013", "unit": "mPa·s"}, {"measurement": "speed of sound", "setting": "[3]; 298.15 K", "value": "1143 ± 2", "unit": "m/s"}, {"measurement": "mass density", "setting": "[3]; 298.15 K", "value": "785.06 ± 0.79", "unit": "kg/m3"}, {"measurement": "viscosity", "setting": "[3]; 308.15 K", "value": "0.901 ± 0.011", "unit": "mPa·s"}, {"measurement": "speed of sound", "setting": "[3]; 308.15 K", "value": "1109 ± 2", "unit": "m/s"}, {"measurement": "mass density", "setting": "[3]; 308.15 K", "value": "776.4 ± 0.78", "unit": "kg/m3"}, {"measurement": "viscosity", "setting": "[3]; 318.15 K", "value": "0.758 ± 0.009", "unit": "mPa·s"}, {"measurement": "speed of sound", "setting": "[3]; 318.15 K", "value": "1075 ± 2", "unit": "m/s"}, {"measurement": "mass density", "setting": "[3]; 318.15 K", "value": "767.6 ± 0.78", "unit": "kg/m3"}, {"measurement": "refractive index", "setting": "[4]; 298.15 K", "value": "1.35905 ± 0.00031"}, {"measurement": "refractive index", "setting": "[4]; 308.15 K", "value": "1.35501 ± 0.00031"}, {"measurement": "refractive index", "setting": "[4]; 318.15 K", "value": "1.35083 ± 0.00031"}]}
{"smiles": "CCCCCO", "note": "[pentan-1-ol]", "values": [{"measurement": "viscosity", "setting": "[3]; 298.15 K", "value": "3.502 ± 0.044", "unit": "mPa·s"}, {"measurement": "speed of sound", "setting": "[3]; 298.15 K", "value": "1276 ± 2", "unit": "m/s"}, {"measurement": "mass density", "setting": "[3]; 298.15 K", "value": "810.88 ± 0.82", "unit": "kg/m3"}, {"measurement": "viscosity", "setting": "[3]; 308.15 K", "value": "2.662 ± 0.034", "unit": "mPa·s"}, {"measurement": "speed of sound", "setting": "[3]; 308.15 K", "value": "1242 ± 2", "unit": "m/s"}, {"measurement": "mass density", "setting": "[3]; 308.15 K", "value": "803.5 ± 0.82", "unit": "kg/m3"}, {"measurement": "viscosity", "setting": "[3]; 318.15 K", "value": "2.061 ± 0.026", "unit": "mPa·s"}, {"measurement": "speed of sound", "setting": "[3]; 318.15 K", "value": "1209 ± 2", "unit": "m/s"}, {"measurement": "mass density", "setting": "[3]; 318.15 K", "value": "795.98 ± 0.81", "unit": "kg/m3"}, {"measurement": "refractive index", "setting": "[4]; 298.15 K", "value": "1.40752 ± 0.00033"}, {"measurement": "refractive index", "setting": "[4]; 308.15 K", "value": "1.40352 ± 0.00033"}, {"measurement": "refractive index", "setting": "[4]; 318.15 K", "value": "1.39942 ± 0.00033"}]}
{"smiles": "CCCO", "note": "[propan-1-ol]", "values": [{"measurement": "viscosity", "setting": "[3]; 298.15 K", "value": "1.943 ± 0.024", "unit": "mPa·s"}, {"measurement": "speed of sound", "setting": "[3]; 298.15 K", "value": "1209 ± 2", "unit": "m/s"}, {"measurement": "mass density", "setting": "[3]; 298.15 K", "value": "799.69 ± 0.81", "unit": "kg/m3"}, {"measurement": "viscosity", "setting": "[3]; 308.15 K", "value": "1.549 ± 0.019", "unit": "mPa·s"}, {"measurement": "speed of sound", "setting": "[3]; 308.15 K", "value": "1175 ± 2", "unit": "m/s"}, {"measurement": "mass density", "setting": "[3]; 308.15 K", "value": "792.76 ± 0.8", "unit": "kg/m3"}, {"measurement": "viscosity", "setting": "[3]; 318.15 K", "value": "1.252 ± 0.016", "unit": "mPa·s"}, {"measurement": "speed of sound", "setting": "[3]; 318.15 K", "value": "1141 ± 2", "unit": "m/s"}, {"measurement": "mass density", "setting": "[3]; 318.15 K", "value": "784.45 ± 0.79", "unit": "kg/m3"}, {"measurement": "refractive index", "setting": "[4]; 298.15 K", "value": "1.38275 ± 0.00032"}, {"measurement": "refractive index", "setting": "[4]; 308.15 K", "value": "1.37857 ± 0.00032"}, {"measurement": "refractive index", "setting": "[4]; 318.15 K", "value": "1.37421 ± 0.00032"}]}
